Results reported in patent US9827255B2, “Fumagillol derivatives” (Takeda Pharmaceutical Company Limited, priority 2014, dated 2017).
Read-outs that look alike come from different tables or passages of the source.

Columns and labels:
[1] = Hypoglycemic activity in KKA^y mice; format: in vivo; details: 10 mg/kg once daily oral gavage, 4-week treatment, male KKA^y mice, mean±SD of 8 animals, p < 0.025 vs. control
Procedure: Six-week-old male KKA^y mice are obtained from commercial vendors and placed on standard chow. Treatment with a MetAP2 inhibitor is initiated after 8-day acclimization. The MetAP2 inhibitor is formulated in an aqueous 0.5% methylcellulose solution, which is administered once daily through oral gavage. Control animals are treated with the equivalent volume of aqueous 0.5% methylcellulose solution without the compound. After 4 weeks, blood is collected from the tail vein of each of the mice. Glycated hemoglobin levels are measured using a Tosoh HLC-723G8 automated glycohemoglobin analyzer, and plasma glucose levels are measured using a Hitachi model 7180 automated glucose analyzer. For evaluation of the hypoglycemic activity of the MetAP2 inhibitor, statistical differences between control- and compound-treated groups are analyzed using a one-tailed Williams test.
TABLE 3 lists glycated hemoglobin (GHb) and plasma glucose (PG) levels in KKA^y mice after a 4-week treatment with the compound shown in Example 1. The study was conducted in accordance with the protocol described in the specification beginning at page 37, using the dose indicated in table. Values are indicated by mean±standard deviation of 8 animals in each group.

MetAP2 [2] = target: T1, MetAP2 (Homo sapiens, UniProt P50579); experiment: MetAP2 cellular activity: Western blotting of NMet-14-3-3γ in HUVEC cells; format: cell-based; design: host or cells: HUVEC; details: 24 hours, ratio of unprocessed N-Met14-3-3γ over β-actin, read-out: MetAP2 Cell pEC50 (converted)
T1 sequence (P50579 whole entry): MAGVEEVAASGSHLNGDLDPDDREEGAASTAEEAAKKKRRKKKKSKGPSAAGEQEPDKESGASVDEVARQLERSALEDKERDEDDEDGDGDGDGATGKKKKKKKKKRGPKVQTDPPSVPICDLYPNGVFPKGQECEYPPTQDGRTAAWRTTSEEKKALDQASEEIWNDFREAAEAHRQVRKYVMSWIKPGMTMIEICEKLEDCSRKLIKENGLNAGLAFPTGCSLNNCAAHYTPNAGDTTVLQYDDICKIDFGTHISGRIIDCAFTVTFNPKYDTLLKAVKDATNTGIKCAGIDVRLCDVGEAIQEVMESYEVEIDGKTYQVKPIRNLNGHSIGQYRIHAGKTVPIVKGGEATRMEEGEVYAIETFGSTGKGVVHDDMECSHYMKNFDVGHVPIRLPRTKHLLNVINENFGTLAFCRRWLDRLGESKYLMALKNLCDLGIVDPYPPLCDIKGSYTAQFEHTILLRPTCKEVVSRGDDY
Procedure: HUVEC cells (Lonza) are seeded in 96-well tissue culture microplates and cultured for 24 hours prior to addition of test compounds (11 point range of serial dilutions) or DMSO vehicle. After 24 hours, whole cell extracts are prepared by lysing cells in cell extraction buffer (Cell Signaling) containing protease and phosphatase inhibitors (Calbiochem). Insoluble material is removed by centrifugation and samples are diluted and boiled in SDS-PAGE buffer. Proteins are resolved by SDS-PAGE and transferred to PVDF membranes. Membranes are blocked then incubated with the appropriate primary antibodies, NMet-14-3-3γ (Novus) and β-actin (Sigma), followed by incubation with secondary IRDye 680- or 800CW-conjugated antibodies (Li-Cor). Membranes are scanned on the Odyssey (Li-Cor) and signals corresponding to N-Met14-3-3γ and β-actin are quantified using LiCor software. Compound EC50s are obtained by curve-fitting the ratios of unprocessed N-Met14-3-3γ protein signal over β-actin protein signal using XLfit4 Microsoft Excel curve-fitting software and are reported as pEC50, i.e., −log(EC50), where EC50 is the molar concentration at 50% effective (maximal) response.
TABLE 1 lists MetAP2 inhibition for some of the compounds shown in the examples, where larger pIC50 and pEC50 values represent higher potency. The compounds shown in TABLE 1 were tested in accordance with the enzyme assay (pIC50) described in the specification beginning at page 35, in which the MetAP2 enzyme is complexed with cobalt or manganese ions, and in accordance with the cellular assay (pEC50) described in the specification beginning at page 36.

[3] = Body weight loss in high-fat diet C57bl/6 mice; format: in vivo; details: once daily, 28 days, oral gavage, male C57bl/6 mice on high-fat diet, BW loss relative to pretreatment
Source text: Ten to twelve weeks old male C57bl/6 mice are obtained from commercial vendors, and placed on high-fat diet (60% kcal fat) for at least 15 weeks. Treatment with MetAP2 inhibitors is initiated when the average body weight reaches approximately 50 g. The MetAP2 inhibitors are formulated in an aqueous solution of 0.5% methyl cellulose and administered through oral gavage. Control animals receive the equivalent volume of aqueous 0.5% methyl cellulose solution without a MetAP2 inhibitor. Body weight (BW) and food intake are recorded daily, and efficacy is calculated individually as a percentage of BW loss relative to the pretreatment values. Depending on the study design, the treatment is continued for 12, 14 or 28 days. In some studies, indirect calorimetry or body composition are determined at the end of the treatment.
TABLE 2 lists body weight loss (BWL) in mice following treatment with some of the compounds shown in the examples. The compounds shown in TABLE 2 were tested in accordance with the BWL protocol described in the specification beginning at page 36, using the dose, dosing regimen (frequency), and treatment duration indicated in table.

MetAP2 [4] = target: T1, MetAP2; experiment: Enzyme assay: inhibition of MetAP2 (Met-AMC substrate, fluorescence); format: biochemical; design: made in house; host or cells: Spodoptera frugiperda Sf9 cells (baculovirus, pFastBac)
Procedure: DNA encoding the full-length sequence of human MetAP2 enzyme is amplified by PCR and cloned into a pFastBac expression vector (Invitrogen). Recombinant baculovirus incorporating the MetAP2 construct is generated by transposition using the Bac-to-Bac system (Invitrogen). The expression of recombinant protein is carried out by infection of Spodoptera frugiperda Sf9 cells (Invitrogen) in 5 L Wave Bioreactors (Wave Biotech). Recombinant protein is isolated from cellular extracts by binding to an SP Hitrap Fast Flow or SP Sepharose (Sigma) column, and the protein is eluted using a NaCl gradient. Partially purified extracts of MetAP2 are further purified by an AKTA FPLC over a Superdex-200 column (GE). The purity of MetAP2 protein is determined on denaturing SDS-PAGE gel. Purified MetAP2 protein is concentrated to a final concentration of 17 mg/mL or 2.5 mg/mL. The protein is stored at −78° C. in a buffer containing 10 mM HEPES pH 7.4, 150 mM NaCl, and 1 mM CoCl2 or in a buffer containing 20 mM HEPES pH 7.4, 120 mM NaCl, and 5 mM MnCl2.
The inhibition of MetAP2 is determined using a black 384-well-plate format under the following reaction conditions: 50 mM Hepes pH 7.5, 100 mM NaCl, 10 μM MnCl2 or 10 μM CoCl2, 0.005% Brij35®, 1 mM TCEP, 1% DMSO. To initiate the assay, 4 μL of 5 to 50 nM MetAP2 enzyme solution (enzyme final concentration is 2 to 20 nM) is added to each well, followed by the addition of 2 μL of the test compound (2.5-fold serial dilutions for 11 data points for each test compound) in a buffer solution containing 5% DMSO. Next, 4 μL of a substrate solution (2.5×Km of Met-AMC) is added to each well of the plate (final substrate concentration at Km value). The reaction rate is monitored by reading fluorescence at 460 nm with excitation wavelength at 330 nm for 10 to 30 minutes using a fluorescence plate reader. The results for each well are expressed as percent inhibition and calculated using the equation: […]

[5] = MetAP2 enzyme complexed with cobalt ions, read-out: MetAP2 Co pIC50 (converted)

| Structure (SMILES) | GHb (glycated hemoglobin) ([1]; control 6.8 ± 0.4) | PG (plasma glucose) ([1]; control 436.6 ± 64.4) | EC50 (MetAP2 [2]) | BWL ([3]; 3 mg/kg) | IC50 (MetAP2 [4]; [5]) | IC50 (MetAP2 [4]; MetAP2 enzyme complexed with manganese ions, read-out: MetAP2 Mn pIC50 (converted)) | BWL ([3]; 1 mg/kg) |
| --- | --- | --- | --- | --- | --- | --- | --- |
| CO[C@@H]1[C@H](OCCP(=O)(c2ccccc2)c2ccccc2)CC[C@]2(CO2)[C@H]1[C@@]1(C)O[C@@H]1CC=C(C)C [Example 1, (2-(((3R,4S,5S,6R)-5-methoxy-4-((2R,3R)-2-methyl-3-(3-methylbut-2-en-1-yl)oxiran-2-yl)-1-oxaspiro[2.5]octan-6-yl)oxy)ethyl)diphenylphosphine oxide] | 5.6 ± 0.4 % | 296.5 ± 77.4 mg/dL | 4.79 nM | 18% | 44.7 nM | 200 nM | – |
| CO[C@@H]1[C@H](OCCP(=O)(c2ccc(C)cc2)c2ccc(C)cc2)CC[C@]2(CO2)[C@H]1[C@@]1(C)O[C@@H]1CC=C(C)C [Example 2, (2-(((3R,4S,5S,6R)-5-methoxy-4-((2R,3R)-2-methyl-3-(3-methylbut-2-en-1-yl)oxiran-2-yl)-1-oxaspiro[2.5]octan-6-yl)oxy)ethyl)di-p-tolylphosphine oxide] | – | – | 6.61 nM | – | – | – | – |
| CO[C@@H]1[C@H](OCCP(=O)(OC)OC)CC[C@]2(CO2)[C@H]1[C@@]1(C)O[C@@H]1CC=C(C)C [Example 4, dimethyl (2-(((3R,4S,5S,6R)-5-methoxy-4-((2R,3R)-2-methyl-3-(3-methylbut-2-en-1-yl)oxiran-2-yl)-1-oxaspiro[2.5]octan-6-yl)oxy)ethyl)phosphonate] | – | – | 3.47 nM | – | – | – | – |
| CCOP(=O)(CCO[C@@H]1CC[C@]2(CO2)[C@@H]([C@@]2(C)O[C@@H]2CC=C(C)C)[C@@H]1OC)OCC [Example 5, diethyl (2-(((3R,4S,5S,6R)-5-methoxy-4-((2R,3R)-2-methyl-3-(3-methylbut-2-en-1-yl)oxiran-2-yl)-1-oxaspiro[2.5]octan-6-yl)oxy)ethyl)phosphonate] | – | – | 6.17 nM | – | 97.7 nM | – | 18% |
